Values joined by “and” are separate entries in the source; they are usually repeats but may differ in a detail not shown here. Equal entries are not always repeated.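 Where inhibition never reached the appropriate level, the endpoint shown equals the highest concentration tested. Otherwise, values were interpolated linearly from a five-concentration, 48-hour dose response in 96-well plates. Abbreviation: GI50, concentration required for 50% inhibition of growth. TGI is the concentration that stops growth completely.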
Experiments:
Experiment in all cases: NCI-60 cell line screen, 48 h
M14 melanoma = system: M14 melanoma
SNB-19 CNS = system: SNB-19 CNS
SF-295 CNS = system: SF-295 CNS
SK-MEL-28 melanoma = system: SK-MEL-28 melanoma
DU-145 prostate = system: DU-145 prostate
PC-3 prostate = system: PC-3 prostate
NCI/ADR-RES ovarian = system: NCI/ADR-RES ovarian
HS 578T breast = system: HS 578T breast
T-47D breast = system: T-47D breast
SF-268 CNS = system: SF-268 CNS

Compound	GI50 (M14 melanoma)	TGI (M14 melanoma) [µM]	GI50 (SNB-19 CNS)	TGI (SNB-19 CNS) [µM]	GI50 (SF-295 CNS)	TGI (SF-295 CNS) [µM]	GI50 (SK-MEL-28 melanoma)	TGI (SK-MEL-28 melanoma) [µM]	GI50 (DU-145 prostate) [µM]	TGI (DU-145 prostate)	GI50 (PC-3 prostate)	TGI (PC-3 prostate)	GI50 (NCI/ADR-RES ovarian)	TGI (NCI/ADR-RES ovarian)	GI50 (HS 578T breast)	TGI (HS 578T breast) [µM]	GI50 (T-47D breast)	TGI (T-47D breast) [µM]	GI50 (SF-268 CNS)	TGI (SF-268 CNS)
Cc1c(Cl)cccc1NC(=O)c1sc2nc3c(cc2c1N)CCCCCC3	0.154 µM	> 50	0.258 µM	28.5	0.168 µM	13	4.59 µM	> 50	0.258	> 50 µM	0.174 µM	> 50 µM	0.164 µM	15.7 µM	0.204 µM	22.9	0.223 µM	> 50	0.821 µM	> 50 µM
COc1ccc(C(=O)c2cc(OC)c(OC)c(OC)c2)cc1O	< 0.01 µM	> 100	0.268 µM	> 100	0.367 µM	> 100	> 80.8 µM	> 100	0.0387	> 100 µM	0.0285 µM	> 100 µM	0.0118 µM	> 100 µM	0.028 µM	> 100	26 µM	> 100	0.0613 µM	> 100 µM
C=C1C(=O)O[C@@H]2C[C@@H](C)[C@@H]3[C@@H](OC4OC(COC(C)=O)C(O)C(O)C4O)CC(=O)[C@@]3(C)C[C@H]12 (some centres undefined)		2.85		45.1		31.3		6.27		21.5 µM		23.7 µM		14.5 µM		> 100		8.89		44.7 µM
COc1cccc(/C=C/C(=O)c2cc3c(N)c(C(=O)Nc4cccc(Cl)c4C)sc3nc2C)c1	1.02 µM	2.78	1.29 µM	6.18	1.5 µM	9.56	1.26 µM	4.7	1.33	3.98 µM	1.43 µM	7.34 µM	0.883 µM	3.08 µM	1.71 µM	> 50	1.52 µM	7.82	1.57 µM	14.4 µM
O=[N+]([O-])c1cc(Br)cc2c1[nH]c1ccc(Br)cc12	14.6 µM	> 100	16.1 µM	70.8	2.78 µM	9.35	39 µM	> 100	6.17	76.6 µM	10.2 µM	> 100 µM	6.09 µM	62.7 µM	2.25 µM	20	6.76 µM	77.9	10.2 µM	45.9 µM
O=c1[nH]nc2c3c(cccc13)NC(CN1Cc3ccccc3C1)=N2	4.08 µM	> 100	52.3 µM	> 100	5.61 µM	> 100	15.3 µM	> 100	5	> 100 µM	7.23 µM	> 100 µM	25.7 µM	> 100 µM	37.4 µM	> 100	5.27 µM	> 100	7.4 µM	> 100 µM
O=C(N/N=C/c1ccc(O)cc1O)c1ccc(Nc2ccnc(C(F)(F)F)c2)cc1	> 100 µM	> 100	14 µM	> 56.5		23.3	7.5 µM	> 100	21.9	> 100 µM	> 45.1 µM	> 100 µM	> 100 µM	> 100 µM	4.4 µM	29	1.29 µM	> 100	0.156 µM	33.3 µM
Cc1c(CN2CCC(Nc3ncnc4sc(CC(F)(F)F)cc34)CC2)ccc2c1cc(C#N)n2Cc1cn[nH]c1	1.77 µM and 3.49 µM	3.69	6.75 µM and 6.03 µM	28.9	2.72 µM and 3.06 µM	14.9	2.2 µM and 5 µM	6.28	10.3	23.9 µM and > 40.5 µM	2.31 µM and 2.33 µM	18.9 µM and > 32.7 µM	4.92 µM and 7.36 µM	20.5 µM and > 25.8 µM	6.23 µM and 10.1 µM	> 68.3	0.897 µM and 1.06 µM	16.9	4.48 µM and 5.71 µM	25.5 µM and > 36.5 µM
NC1CCC[C@@H](O)[C@H]1O (some centres undefined)		> 100		> 100		> 100		> 100		> 100 µM		> 100 µM		> 100 µM		> 100		> 100		> 100 µM
CCc1ccc(CCC(=O)Nc2ncc(Cc3ccccc3)s2)o1	0.876 µM	> 100	3.92 µM	> 100	3.29 µM	> 100	9.11 µM	> 100	4.51	> 100 µM	2.74 µM	> 100 µM	2.39 µM	> 100 µM	2.29 µM	> 100	2.6 µM	> 100	8.64 µM	> 100 µM

— PubChem BioAssay (NCI)
